“And” between values parts separate entries of the source, which are not always exact repeats. Equal values may be shown once. The source made the active and inactive calls.
Columns and labels:
Aminopeptidase N = target: T1, Aminopeptidase N (Plasmodium falciparum FcB1/Columbia, UniProt O96935); assay: P. falciparum M1AAP inhibitors, biochemical, fluorogenic H-Leu-NHMec substrate, 1536-well (AID 1445); parameters: species or system Plasmodium falciparum 3D7, 3D7
T1 sequence (O96935 whole entry): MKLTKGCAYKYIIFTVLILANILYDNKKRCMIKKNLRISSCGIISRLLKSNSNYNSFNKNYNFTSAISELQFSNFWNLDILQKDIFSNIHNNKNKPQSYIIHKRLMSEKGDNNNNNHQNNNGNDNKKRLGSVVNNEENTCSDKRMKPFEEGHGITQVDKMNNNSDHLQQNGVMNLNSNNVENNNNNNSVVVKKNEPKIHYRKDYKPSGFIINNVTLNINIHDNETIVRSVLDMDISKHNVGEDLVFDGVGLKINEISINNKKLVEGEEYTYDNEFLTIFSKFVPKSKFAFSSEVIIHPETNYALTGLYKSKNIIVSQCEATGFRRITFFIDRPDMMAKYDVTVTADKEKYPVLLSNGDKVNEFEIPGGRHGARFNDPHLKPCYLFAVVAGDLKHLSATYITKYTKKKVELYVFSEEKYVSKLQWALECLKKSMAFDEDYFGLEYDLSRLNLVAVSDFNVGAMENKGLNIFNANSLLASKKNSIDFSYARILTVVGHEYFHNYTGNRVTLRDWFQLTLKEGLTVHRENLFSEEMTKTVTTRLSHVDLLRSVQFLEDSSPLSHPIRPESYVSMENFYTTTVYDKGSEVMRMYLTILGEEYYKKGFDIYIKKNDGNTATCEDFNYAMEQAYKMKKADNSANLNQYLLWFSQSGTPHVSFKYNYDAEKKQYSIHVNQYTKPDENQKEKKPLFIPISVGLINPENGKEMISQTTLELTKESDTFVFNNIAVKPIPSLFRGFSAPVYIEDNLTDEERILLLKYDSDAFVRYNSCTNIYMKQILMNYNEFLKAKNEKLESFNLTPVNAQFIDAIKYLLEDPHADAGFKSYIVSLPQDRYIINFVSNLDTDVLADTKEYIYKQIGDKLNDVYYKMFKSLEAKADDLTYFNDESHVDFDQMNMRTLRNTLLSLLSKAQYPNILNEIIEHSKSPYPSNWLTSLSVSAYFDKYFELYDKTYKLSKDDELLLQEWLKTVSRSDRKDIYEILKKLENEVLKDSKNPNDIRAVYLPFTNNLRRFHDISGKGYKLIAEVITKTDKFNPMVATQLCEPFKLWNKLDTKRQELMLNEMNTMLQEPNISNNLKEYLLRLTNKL

cells [1] = assay type: functional
Kallikrein-7 = Kallikrein-7 (Homo sapiens, UniProt P49862); assay: Fluorescence Intensity-based biochemical primary high throughput dose response assay to identify activators of kallikrein-7 (K7) zymogen.
Kallikrein-7, sequence (P49862 whole entry, the tested form may be a part): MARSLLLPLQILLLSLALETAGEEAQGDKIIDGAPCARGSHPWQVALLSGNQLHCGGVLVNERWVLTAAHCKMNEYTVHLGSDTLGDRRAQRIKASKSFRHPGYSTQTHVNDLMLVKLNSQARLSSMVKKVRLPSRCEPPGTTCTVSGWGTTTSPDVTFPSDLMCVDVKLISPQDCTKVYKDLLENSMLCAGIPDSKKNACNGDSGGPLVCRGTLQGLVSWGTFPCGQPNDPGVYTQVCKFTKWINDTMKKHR

[2] = HIV Env cell-cell fusion inhibitors, dose response, HIV entry, plate reader, dry powder (AID 687023); assay type: functional, cell-based
[3] = CEM21 cell cytotoxicity, dose response, cytotoxicity control, plate reader, dry powder (AID 687026); assay type: functional, cell-based
Caspase-3 [4] = target: T2, Caspase-3 (Homo sapiens, UniProt P42574); assay type: functional
T2 sequence (P42574 whole entry): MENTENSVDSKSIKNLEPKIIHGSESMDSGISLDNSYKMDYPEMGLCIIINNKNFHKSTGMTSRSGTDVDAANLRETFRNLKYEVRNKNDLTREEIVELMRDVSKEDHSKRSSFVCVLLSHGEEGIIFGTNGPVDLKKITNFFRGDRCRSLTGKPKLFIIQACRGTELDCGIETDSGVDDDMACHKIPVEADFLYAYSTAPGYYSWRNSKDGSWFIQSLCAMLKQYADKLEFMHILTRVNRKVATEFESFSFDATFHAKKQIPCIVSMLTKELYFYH

[5] = target: T3, Sentrin-specific protease 7 (Homo sapiens, UniProt Q9BQF6); assay type: functional;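 further: Luminescence-based dose-response confirmation of ultra-high-throughput screening hits, measuring inhibition of SENP7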
T3 sequence (Q9BQF6 whole entry): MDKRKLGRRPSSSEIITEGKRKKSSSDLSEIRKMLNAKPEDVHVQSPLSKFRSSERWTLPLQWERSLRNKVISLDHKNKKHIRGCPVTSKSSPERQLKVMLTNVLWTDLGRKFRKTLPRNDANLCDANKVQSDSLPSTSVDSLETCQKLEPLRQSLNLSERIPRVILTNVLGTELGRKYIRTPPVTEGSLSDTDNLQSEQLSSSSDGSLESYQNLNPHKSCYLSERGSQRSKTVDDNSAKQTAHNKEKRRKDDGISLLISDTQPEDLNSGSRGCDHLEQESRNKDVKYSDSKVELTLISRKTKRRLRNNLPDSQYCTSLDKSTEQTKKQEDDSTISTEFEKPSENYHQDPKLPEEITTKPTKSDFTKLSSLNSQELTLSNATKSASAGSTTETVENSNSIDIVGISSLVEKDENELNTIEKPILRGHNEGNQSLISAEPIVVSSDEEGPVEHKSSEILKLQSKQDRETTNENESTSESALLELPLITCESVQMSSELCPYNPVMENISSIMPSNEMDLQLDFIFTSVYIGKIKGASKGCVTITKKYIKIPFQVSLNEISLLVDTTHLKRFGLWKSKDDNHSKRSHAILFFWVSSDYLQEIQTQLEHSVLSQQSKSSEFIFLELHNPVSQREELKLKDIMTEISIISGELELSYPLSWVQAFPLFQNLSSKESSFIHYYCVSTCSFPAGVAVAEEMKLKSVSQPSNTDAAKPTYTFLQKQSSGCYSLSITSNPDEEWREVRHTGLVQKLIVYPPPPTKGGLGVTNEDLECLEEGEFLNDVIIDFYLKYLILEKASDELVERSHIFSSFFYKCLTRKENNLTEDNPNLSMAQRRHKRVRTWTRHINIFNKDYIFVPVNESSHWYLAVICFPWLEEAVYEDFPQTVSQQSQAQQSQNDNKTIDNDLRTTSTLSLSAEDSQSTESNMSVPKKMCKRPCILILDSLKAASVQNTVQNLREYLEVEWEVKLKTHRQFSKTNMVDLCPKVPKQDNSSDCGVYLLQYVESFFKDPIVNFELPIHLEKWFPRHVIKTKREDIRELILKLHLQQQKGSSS

Nonstructural protein 1 = Nonstructural protein 1 (Influenza A virus, UniProt Q194T2); assay type: functional, Influenza A virus (A/California/07/2009(H1N1))
Nonstructural protein 1, sequence (Q194T2 whole entry): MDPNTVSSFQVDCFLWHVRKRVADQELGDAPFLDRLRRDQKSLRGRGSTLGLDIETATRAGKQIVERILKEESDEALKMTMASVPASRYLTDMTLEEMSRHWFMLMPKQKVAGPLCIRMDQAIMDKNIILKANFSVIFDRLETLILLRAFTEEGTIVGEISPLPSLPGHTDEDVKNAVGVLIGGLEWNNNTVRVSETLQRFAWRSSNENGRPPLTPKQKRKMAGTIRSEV

[6] = target: T4, Sentrin-specific protease 6 (Homo sapiens, UniProt Q9GZR1); assay type: functional
T4 sequence (Q9GZR1 whole entry): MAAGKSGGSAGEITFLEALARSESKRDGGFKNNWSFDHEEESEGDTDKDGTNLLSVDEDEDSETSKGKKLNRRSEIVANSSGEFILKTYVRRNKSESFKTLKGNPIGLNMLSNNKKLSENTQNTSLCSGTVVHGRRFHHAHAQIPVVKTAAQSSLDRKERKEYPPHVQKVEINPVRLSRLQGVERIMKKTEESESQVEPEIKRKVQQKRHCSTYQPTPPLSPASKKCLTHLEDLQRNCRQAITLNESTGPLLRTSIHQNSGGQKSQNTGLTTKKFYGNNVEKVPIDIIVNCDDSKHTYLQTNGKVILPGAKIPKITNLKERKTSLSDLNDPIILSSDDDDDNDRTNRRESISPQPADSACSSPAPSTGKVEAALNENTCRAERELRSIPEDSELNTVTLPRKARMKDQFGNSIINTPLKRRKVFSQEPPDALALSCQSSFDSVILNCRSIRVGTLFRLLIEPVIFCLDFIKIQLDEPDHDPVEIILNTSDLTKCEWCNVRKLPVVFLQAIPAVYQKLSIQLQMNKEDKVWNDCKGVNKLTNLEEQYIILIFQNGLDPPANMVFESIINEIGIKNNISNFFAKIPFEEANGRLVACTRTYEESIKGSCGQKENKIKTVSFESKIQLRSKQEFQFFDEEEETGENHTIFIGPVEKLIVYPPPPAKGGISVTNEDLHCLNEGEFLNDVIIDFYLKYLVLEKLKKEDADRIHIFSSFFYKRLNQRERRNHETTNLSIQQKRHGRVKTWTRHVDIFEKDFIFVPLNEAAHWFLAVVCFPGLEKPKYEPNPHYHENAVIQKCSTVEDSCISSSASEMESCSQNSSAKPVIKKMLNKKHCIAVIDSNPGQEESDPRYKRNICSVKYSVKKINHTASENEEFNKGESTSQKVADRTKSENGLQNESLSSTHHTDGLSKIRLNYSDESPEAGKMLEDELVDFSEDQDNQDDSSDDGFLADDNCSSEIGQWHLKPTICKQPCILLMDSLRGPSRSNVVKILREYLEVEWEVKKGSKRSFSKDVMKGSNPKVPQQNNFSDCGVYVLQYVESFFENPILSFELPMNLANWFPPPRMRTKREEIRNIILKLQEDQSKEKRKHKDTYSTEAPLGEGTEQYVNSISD

[7] = target: T5, Sentrin-specific protease 8 (Homo sapiens, UniProt Q96LD8); assay type: functional;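 further: luminescence read-out of SENP8 inhibition, dose-response confirmation following an ultra-high-throughput screen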
T5 sequence (Q96LD8 whole entry): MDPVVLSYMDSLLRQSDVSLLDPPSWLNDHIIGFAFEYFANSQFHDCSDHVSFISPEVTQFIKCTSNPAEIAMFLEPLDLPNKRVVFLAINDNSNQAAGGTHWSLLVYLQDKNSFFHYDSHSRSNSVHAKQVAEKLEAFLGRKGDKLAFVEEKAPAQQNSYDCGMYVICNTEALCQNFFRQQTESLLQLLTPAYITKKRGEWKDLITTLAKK

[8] = target: T5, Sentrin-specific protease 8; assay: SENP8 protease inhibitors, SAR follow-up, biochemical, luminescence (AID 504501); assay type: functional
Caspase-3 [9] = target: T2, Caspase-3; assay: SAR Analysis of small molecule inhibitors of Sentrin-specific proteases (SENPs) using a Caspase-3 Selectivity assay. [Related pubchem assays (depositor defined):AID2540, AID2599, AID434973, AID489001]; assay type: functional
[10] = target: T4, Sentrin-specific protease 6; assay: SAR Analysis of small molecule inhibitors of Sentrin-specific protease 6 (SENP6) using a Luminescent assay. [Related pubchem assays (depositor defined):AID2582, AID2599]; assay type: functional
[11] = target: T3, Sentrin-specific protease 7; assay: SENP7 protease inhibitors, SAR follow-up, biochemical, luminescence (AID 504497); assay type: functional
[12] = target: Oxysterols receptor LXR-beta (Homo sapiens, UniProt P55055); assay type: functional, cell-based;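 further: Cell-based luminescence dose-response assay of agonist activity at LXR, run as a confirmatory counterscreen to a daf-12 agonist screen; HEK293 cells with Gal4-LXR fusion and GAL4-driven luciferase reporter; agonist potency from rising luciferase signal of a Gal4-LXR reporter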
Oxysterols receptor LXR-beta, sequence (P55055 whole entry, the tested form may be a part): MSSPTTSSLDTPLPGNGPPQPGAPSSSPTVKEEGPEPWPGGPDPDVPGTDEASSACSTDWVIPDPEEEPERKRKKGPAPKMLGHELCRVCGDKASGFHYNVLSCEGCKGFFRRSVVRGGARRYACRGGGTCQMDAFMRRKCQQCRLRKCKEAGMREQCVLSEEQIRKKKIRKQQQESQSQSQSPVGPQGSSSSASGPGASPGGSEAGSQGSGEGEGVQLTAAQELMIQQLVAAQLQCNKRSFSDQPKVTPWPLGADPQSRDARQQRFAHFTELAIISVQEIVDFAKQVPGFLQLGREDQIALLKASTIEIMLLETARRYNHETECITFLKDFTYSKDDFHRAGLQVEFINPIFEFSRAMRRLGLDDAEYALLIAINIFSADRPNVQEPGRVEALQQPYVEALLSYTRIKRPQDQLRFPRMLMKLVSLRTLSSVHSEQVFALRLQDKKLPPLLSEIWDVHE

Cytochrome P450 2D6 = Cytochrome P450 2D6 (Homo sapiens, UniProt P10635);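 further: CYP2D6 member of a cytochrome P450 panel assay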
Cytochrome P450 2D6, sequence (P10635 whole entry): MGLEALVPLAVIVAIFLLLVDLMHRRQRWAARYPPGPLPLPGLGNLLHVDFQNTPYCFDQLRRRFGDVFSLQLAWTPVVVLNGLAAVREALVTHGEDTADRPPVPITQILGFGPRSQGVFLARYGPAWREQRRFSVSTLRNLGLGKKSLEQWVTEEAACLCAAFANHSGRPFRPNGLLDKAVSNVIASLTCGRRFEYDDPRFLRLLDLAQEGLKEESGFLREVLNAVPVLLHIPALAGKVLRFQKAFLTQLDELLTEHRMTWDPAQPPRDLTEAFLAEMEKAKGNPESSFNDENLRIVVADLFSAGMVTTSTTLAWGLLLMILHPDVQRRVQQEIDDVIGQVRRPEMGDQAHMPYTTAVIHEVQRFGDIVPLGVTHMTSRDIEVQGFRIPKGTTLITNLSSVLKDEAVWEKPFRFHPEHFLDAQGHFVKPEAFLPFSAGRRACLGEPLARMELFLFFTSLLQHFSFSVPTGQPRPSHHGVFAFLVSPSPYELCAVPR

cells [13] = assay: cells
[14] = Late-stage results from the probe development effort to identify antagonists of arginine vasopressin receptor 1a (AVPR1a): fluorescence-based cell-based dose response AVPR1a inhibition assay.; assay type: functional
Vasopressin V1b receptor = Vasopressin V1b receptor (Homo sapiens, UniProt P47901); assay: Late-stage results from the probe development effort to identify antagonists of arginine vasopressin receptor 1a (AVPR1a): fluorescence-based cell-based dose response AVPR1b inhibition counterscreen assay.; assay type: functional
Vasopressin V1b receptor, sequence (P47901 whole entry): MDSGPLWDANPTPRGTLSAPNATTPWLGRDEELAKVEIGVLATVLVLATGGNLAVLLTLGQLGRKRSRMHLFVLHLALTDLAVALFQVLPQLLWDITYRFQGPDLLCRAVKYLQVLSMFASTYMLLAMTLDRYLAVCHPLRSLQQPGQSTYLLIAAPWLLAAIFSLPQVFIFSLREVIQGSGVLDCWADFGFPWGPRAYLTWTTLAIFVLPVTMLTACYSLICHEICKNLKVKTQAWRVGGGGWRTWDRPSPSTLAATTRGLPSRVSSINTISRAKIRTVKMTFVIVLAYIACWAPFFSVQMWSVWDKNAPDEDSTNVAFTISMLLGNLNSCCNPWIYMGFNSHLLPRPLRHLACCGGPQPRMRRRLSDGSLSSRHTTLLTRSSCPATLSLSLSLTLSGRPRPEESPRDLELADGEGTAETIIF

Vasopressin V2 receptor = Vasopressin V2 receptor (Homo sapiens, UniProt P30518); assay: Late-stage results from the probe development effort to identify antagonists of arginine vasopressin receptor 1a (AVPR1a): fluorescence-based cell-based dose response AVPR2 inhibition counterscreen assay.; assay type: functional
Vasopressin V2 receptor, sequence (P30518 whole entry): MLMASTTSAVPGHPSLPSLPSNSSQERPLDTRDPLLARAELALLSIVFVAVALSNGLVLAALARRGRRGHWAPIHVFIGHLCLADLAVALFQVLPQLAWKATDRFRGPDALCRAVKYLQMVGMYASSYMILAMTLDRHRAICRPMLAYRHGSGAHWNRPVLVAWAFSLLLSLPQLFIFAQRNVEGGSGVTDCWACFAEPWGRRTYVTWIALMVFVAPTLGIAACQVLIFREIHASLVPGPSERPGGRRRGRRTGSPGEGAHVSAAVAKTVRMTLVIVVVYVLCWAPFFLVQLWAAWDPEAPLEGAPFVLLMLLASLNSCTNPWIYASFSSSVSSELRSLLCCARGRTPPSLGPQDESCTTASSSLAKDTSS

[15] = Late-stage results from the probe development effort to identify antagonists of arginine vasopressin receptor 1a (AVPR1a): fluorescence-based cell-based dose response OXTR inhibition counterscreen assay.; assay type: functional
[16] = Late-stage results from the probe development effort to identify antagonists of arginine vasopressin receptor 1a (AVPR1a): luminescence-based cell-based dose response counterscreen assay to determine cytotoxicity of the test compound.; assay type: functional
[17] = A549 cell cytotoxicity, dose response, cytotoxicity control, 24 h, CellTiter-Glo luminescence, cherry-picks (AID 1053115); assay type: functional, cell-based; conditions: A549, 24 h

In the case of `O=C(Oc1c(-c2ccco2)oc2ccccc2c1=O)c1cccnc1`, the IC50 (Aminopeptidase N) is reported as 129 µM (active), the IC50 (cells [1]) is reported as 20.5 µM (active) and the EC50 (Kallikrein-7) is reported as 19.6 µM (inactive).

With `COc1ccc(S(=O)(=O)NCc2ccncc2)cc1OC` the AC50 [2] was 25.4 µM (active) and 32 µM (active) and the AC50 [3] was > 70 µM (inactive).

For `O=[N+]([O-])c1ccccc1N/N=C/c1c[nH]c2ccccc12`, the IC50 (Caspase-3 [4]) was 32.8 µM (active), the IC50 [5] was 3.36 µM (active) and the IC50 (Nonstructural protein 1) was 19 µM (active). For the same compound, the IC50 [6] was > 100 µM (inactive), the IC50 [7] was > 100 µM (inactive) and the IC50 [8] was 6.32 µM (active). The IC50 (Caspase-3 [9]) was 17.4 µM (active), the IC50 [10] was 5.73 µM (active) and the IC50 [11] was 2.26 µM (active). For the same compound, the EC50 [12] was > 67.5 µM (inactive), the AC50 (Cytochrome P450 2D6) was 20 µM (inconclusive) and the EC50 (cells [13]) was > 67.5 µM (inactive).

For `O=C(C1CCN(c2ccc(Cl)cn2)CC1)N(CC1CC1)c1ccc(Cl)cc1`, the IC50 [14] was 0.04 µM (active), the IC50 (Vasopressin V1b receptor) was > 50 µM (active) and the IC50 (Vasopressin V2 receptor) was > 50 µM (inactive). The IC50 [15] was > 50 µM (inactive) and the CC50 [16] was > 25 µM (inactive).

In the case of `CCCNC(=O)N(C)C[C@@H]1Oc2ncc(C#CC3CCCCC3)cc2C(=O)N([C@H](C)CO)C[C@@H]1C`, the AC50 [17] is reported as 59.7 µM (active).

Source: ChEMBL document CHEMBL1201862, “PubChem BioAssay data set” (2004)
